# Columns and labels:
# [1] = biological target: T1, Glucocorticoid receptor (Homo sapiens, UniProt P04150)
# T1 sequence (P04150 whole entry): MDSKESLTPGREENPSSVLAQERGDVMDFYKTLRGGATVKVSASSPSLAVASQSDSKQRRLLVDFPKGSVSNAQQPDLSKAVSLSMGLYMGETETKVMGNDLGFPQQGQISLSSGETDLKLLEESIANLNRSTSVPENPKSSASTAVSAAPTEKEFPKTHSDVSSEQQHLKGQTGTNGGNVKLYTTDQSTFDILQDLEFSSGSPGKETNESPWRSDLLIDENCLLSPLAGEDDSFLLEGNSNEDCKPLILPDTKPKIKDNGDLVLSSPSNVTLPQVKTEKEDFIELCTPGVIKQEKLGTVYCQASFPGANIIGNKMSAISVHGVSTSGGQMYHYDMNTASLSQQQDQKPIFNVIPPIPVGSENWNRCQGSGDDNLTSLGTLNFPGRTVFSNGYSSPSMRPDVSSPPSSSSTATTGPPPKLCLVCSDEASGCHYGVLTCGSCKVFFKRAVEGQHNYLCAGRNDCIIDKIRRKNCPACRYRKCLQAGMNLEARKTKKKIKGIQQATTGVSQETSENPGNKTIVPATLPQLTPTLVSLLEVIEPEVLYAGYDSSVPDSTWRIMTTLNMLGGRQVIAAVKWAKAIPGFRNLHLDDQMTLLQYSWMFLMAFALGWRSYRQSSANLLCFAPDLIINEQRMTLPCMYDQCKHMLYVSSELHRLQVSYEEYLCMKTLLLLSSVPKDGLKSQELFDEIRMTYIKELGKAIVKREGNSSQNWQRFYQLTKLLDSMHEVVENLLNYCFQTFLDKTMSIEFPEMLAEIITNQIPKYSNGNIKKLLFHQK
# Description: Binding affinity to human glucocorticoid receptor by fluorescence polarization competitive binding assay
# [2] = biological target: Beta-2 adrenergic receptor (Homo sapiens) (UniProt P07550); assay: Inhibition of adrenergic beta2 receptor at 1 uM
# [3] = biological target: T2, Adenosine receptor A1 (Homo sapiens) (UniProt P30542); assay: Inhibition of adenosine A1 receptor at 1 uM
# T2 sequence (whole entry): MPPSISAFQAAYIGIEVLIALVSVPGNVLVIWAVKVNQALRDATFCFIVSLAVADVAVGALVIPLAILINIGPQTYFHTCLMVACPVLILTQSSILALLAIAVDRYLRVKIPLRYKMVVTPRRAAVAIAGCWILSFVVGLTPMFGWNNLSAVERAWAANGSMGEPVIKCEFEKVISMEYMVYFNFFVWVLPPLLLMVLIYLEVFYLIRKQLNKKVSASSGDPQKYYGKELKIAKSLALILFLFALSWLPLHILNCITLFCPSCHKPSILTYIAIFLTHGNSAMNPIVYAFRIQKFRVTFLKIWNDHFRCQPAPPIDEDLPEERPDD
# [4] = biological target: Adenosine receptor A2a (Homo sapiens) (UniProt P29274); assay: Inhibition of adenosine A2A receptor at 1 uM
# [5] = biological target: T3, Alpha-2A adrenergic receptor (Homo sapiens) (UniProt P08913); assay: Inhibition of adrenergic alpha2A receptor at 1 uM
# T3 sequence (whole entry): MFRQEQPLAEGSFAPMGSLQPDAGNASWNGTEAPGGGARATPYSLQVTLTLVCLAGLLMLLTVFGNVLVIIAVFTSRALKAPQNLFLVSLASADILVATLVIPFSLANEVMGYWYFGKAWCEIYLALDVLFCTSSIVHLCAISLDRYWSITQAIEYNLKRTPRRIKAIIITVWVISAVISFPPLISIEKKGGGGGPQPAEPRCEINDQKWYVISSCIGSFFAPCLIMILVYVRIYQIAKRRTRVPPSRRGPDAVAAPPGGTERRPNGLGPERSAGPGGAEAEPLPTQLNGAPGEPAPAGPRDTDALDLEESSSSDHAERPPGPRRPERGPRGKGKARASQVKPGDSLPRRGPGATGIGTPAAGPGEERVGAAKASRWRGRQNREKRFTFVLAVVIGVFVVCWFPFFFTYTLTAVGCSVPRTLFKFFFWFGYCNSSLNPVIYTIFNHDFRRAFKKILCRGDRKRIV
# [6] = Inhibition of sigma 2 receptor at 1 uM
# [7] = Inhibition of rolipram binding site at 1 uM
# [8] = biological target: Sigma non-opioid intracellular receptor 1 (Homo sapiens) (UniProt Q99720); assay: Inhibition of sigma 1 receptor at 1 uM
# [9] = biological target: T4, Muscarinic acetylcholine receptor M2 (Homo sapiens) (UniProt P08172); assay: Inhibition of muscarinic M2 receptor at 1 uM
# T4 sequence (whole entry): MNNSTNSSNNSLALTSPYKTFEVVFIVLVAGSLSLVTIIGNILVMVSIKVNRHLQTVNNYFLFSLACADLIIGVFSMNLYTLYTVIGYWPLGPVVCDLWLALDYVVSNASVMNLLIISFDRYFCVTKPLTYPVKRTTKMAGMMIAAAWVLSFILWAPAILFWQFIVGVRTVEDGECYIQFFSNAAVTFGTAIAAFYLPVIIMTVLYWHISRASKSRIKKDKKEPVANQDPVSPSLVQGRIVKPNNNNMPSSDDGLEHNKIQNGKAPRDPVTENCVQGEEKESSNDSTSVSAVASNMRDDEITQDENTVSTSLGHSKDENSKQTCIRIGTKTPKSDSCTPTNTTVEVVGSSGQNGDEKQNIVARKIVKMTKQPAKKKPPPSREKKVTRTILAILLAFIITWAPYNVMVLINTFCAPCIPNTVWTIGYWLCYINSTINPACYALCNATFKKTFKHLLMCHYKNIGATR
# [10] = Inhibition of GABAA receptor agonist site at 1 uM; format: functional
# [11] = biological target: D(2) dopamine receptor (Homo sapiens) (UniProt P14416); assay: Inhibition of dopamine D2S receptor at 1 uM
# [12] = Inhibition of central imidazoline I2 receptor at 1 uM
# [13] = biological target: Mu-type opioid receptor (Homo sapiens) (UniProt P35372); assay: Inhibition of mu opioid receptor at 1 uM
# [14] = biological target: Beta-1 adrenergic receptor (Homo sapiens) (UniProt P08588); assay: Inhibition of adrenergic beta-1 receptor at 1 uM
# [15] = biological target: Sodium-dependent noradrenaline transporter (Homo sapiens) (UniProt P23975); assay: Inhibition of norepinephrine transporter at 1 uM
# [16] = Inhibition of central benzodiazepine receptor at 1 uM
# [17] = biological target: Muscarinic acetylcholine receptor M3 (Homo sapiens) (UniProt P20309); assay: Inhibition of muscarinic M3 receptor at 1 uM
# [18] = Inhibition of NMDA receptor at 1 uM
# [19] = Inhibition of ATP-sensitive potassium channel at 1 uM
# [20] = Inhibition of nicotinic acetylcholine receptor at 1 uM
# [21] = biological target: T5, Alpha-1A adrenergic receptor (Homo sapiens) (UniProt P35348); assay: Inhibition of adrenergic alpha1A receptor at 1 uM
# T5 sequence (whole entry): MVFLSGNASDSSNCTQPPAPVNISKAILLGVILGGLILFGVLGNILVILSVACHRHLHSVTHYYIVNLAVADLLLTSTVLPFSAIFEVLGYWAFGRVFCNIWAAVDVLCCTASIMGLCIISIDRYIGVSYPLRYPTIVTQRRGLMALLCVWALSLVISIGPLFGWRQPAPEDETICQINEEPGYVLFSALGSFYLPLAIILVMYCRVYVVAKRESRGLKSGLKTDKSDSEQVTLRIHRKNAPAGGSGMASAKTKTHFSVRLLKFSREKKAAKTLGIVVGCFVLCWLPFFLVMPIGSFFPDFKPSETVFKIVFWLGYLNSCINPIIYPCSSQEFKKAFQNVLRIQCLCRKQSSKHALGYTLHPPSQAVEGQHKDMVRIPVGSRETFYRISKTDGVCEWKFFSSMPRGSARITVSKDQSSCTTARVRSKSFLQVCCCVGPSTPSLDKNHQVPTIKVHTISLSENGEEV
# [22] = Inhibition of phencyclidine receptor at 1 uM
# [23] = biological target: D(1A) dopamine receptor (Homo sapiens) (UniProt P21728); assay: Inhibition of dopamine D1 receptor at 1 uM
# [24] = biological target: Prostaglandin E2 receptor EP4 subtype (Homo sapiens) (UniProt P35408); assay: Inhibition of prostanoid EP4 receptor at 1 uM
# [25] = Inhibition of phorbol ester site of PKC at 1 uM
# [26] = Inhibition of sodium channel site 2 at 1 uM
# [27] = biological target: Histamine H1 receptor (Homo sapiens) (UniProt P35367); assay: Inhibition of histamine H1 receptor at 1 uM
# [28] = biological target: T6, Alpha-1B adrenergic receptor (Homo sapiens) (UniProt P35368); assay: Inhibition of adrenergic Alpha-1B receptor at 1 uM
# T6 sequence (whole entry): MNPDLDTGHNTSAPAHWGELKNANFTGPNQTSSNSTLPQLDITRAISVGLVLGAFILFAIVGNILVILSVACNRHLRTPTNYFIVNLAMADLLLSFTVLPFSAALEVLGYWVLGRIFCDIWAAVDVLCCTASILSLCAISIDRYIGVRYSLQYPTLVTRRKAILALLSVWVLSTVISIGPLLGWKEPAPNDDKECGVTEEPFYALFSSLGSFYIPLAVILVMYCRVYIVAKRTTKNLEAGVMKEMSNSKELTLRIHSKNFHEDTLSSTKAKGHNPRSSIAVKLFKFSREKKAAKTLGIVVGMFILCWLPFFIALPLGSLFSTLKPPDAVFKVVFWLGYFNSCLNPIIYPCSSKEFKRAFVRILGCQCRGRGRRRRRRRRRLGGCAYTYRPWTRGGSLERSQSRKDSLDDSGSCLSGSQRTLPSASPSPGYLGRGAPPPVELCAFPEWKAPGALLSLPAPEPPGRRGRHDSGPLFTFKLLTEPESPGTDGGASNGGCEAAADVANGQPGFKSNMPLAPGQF
# [29] = Inhibition of nicotinic bungarotoxin-sensitive acetylcholine receptor at 1 uM
# [30] = Inhibition of calcium channel L type dihydropyridine binding site at 1 uM
# Prostaglandin E2 receptor EP4 subtype (Homo sapiens), sequence (P35408 whole entry): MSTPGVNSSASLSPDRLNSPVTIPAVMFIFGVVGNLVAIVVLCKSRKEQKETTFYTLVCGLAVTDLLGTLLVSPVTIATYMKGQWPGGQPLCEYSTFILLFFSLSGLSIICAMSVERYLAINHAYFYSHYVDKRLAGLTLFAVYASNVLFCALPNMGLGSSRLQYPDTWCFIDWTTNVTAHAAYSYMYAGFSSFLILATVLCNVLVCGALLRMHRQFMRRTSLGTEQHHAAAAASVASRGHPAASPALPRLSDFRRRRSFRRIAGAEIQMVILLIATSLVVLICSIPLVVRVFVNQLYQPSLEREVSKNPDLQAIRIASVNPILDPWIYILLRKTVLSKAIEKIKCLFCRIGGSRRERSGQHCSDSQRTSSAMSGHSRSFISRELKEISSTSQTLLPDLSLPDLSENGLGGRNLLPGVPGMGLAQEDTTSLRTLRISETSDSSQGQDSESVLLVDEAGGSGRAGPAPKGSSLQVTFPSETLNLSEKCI
# Sigma non-opioid intracellular receptor 1 (Homo sapiens), sequence (Q99720 whole entry): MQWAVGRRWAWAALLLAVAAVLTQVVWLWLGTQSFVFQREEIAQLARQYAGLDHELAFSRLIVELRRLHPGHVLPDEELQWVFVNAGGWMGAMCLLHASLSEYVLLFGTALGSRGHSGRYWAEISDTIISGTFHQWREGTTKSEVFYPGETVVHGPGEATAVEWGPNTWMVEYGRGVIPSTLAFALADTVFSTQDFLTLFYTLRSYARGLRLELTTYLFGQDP
# Sodium-dependent noradrenaline transporter (Homo sapiens), sequence (P23975 whole entry): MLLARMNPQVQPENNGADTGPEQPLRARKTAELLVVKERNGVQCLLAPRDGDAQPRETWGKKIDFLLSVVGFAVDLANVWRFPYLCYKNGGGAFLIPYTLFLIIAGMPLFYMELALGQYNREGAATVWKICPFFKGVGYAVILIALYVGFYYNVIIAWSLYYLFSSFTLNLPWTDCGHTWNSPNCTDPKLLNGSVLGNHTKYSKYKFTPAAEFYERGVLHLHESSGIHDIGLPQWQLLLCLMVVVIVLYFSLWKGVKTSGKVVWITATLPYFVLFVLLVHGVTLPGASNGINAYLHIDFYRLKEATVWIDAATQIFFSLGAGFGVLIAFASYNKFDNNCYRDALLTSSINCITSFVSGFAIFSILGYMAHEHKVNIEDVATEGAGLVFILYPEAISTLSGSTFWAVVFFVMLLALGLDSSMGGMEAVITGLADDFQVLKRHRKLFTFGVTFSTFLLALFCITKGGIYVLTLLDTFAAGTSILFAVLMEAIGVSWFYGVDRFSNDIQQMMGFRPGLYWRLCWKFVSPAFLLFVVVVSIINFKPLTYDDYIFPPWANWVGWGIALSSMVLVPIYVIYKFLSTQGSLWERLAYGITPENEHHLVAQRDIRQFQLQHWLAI
# Histamine H1 receptor (Homo sapiens), sequence (P35367 whole entry): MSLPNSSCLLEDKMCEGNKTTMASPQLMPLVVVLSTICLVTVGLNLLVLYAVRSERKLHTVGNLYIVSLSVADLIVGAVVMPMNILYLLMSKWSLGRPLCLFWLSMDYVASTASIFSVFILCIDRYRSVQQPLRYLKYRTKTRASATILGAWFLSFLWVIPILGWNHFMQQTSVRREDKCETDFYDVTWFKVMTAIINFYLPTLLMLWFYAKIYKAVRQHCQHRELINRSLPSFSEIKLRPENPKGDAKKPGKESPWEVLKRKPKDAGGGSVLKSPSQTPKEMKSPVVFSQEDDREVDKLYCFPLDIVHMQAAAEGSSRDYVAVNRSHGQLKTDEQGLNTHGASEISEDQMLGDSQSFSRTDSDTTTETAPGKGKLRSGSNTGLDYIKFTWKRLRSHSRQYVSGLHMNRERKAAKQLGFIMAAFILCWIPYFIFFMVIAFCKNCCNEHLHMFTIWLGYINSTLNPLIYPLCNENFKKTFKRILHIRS
# Muscarinic acetylcholine receptor M3 (Homo sapiens), sequence (P20309 whole entry, looked up): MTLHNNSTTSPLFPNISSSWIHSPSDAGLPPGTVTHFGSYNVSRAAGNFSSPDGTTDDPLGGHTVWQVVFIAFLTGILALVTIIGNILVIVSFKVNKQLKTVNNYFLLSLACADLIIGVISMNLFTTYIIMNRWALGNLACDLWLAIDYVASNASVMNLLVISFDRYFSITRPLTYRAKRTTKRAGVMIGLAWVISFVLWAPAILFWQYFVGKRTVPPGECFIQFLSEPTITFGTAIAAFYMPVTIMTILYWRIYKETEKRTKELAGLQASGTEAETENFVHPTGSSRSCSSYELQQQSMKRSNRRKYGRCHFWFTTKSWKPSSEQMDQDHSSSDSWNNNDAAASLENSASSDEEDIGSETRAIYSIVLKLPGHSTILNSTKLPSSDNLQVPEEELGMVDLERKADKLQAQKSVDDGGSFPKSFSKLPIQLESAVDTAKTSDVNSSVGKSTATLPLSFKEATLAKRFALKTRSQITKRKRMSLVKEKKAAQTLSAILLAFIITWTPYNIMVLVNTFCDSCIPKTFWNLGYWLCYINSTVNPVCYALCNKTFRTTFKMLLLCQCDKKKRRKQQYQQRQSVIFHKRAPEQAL
# Beta-1 adrenergic receptor (Homo sapiens), sequence (P08588 whole entry, looked up): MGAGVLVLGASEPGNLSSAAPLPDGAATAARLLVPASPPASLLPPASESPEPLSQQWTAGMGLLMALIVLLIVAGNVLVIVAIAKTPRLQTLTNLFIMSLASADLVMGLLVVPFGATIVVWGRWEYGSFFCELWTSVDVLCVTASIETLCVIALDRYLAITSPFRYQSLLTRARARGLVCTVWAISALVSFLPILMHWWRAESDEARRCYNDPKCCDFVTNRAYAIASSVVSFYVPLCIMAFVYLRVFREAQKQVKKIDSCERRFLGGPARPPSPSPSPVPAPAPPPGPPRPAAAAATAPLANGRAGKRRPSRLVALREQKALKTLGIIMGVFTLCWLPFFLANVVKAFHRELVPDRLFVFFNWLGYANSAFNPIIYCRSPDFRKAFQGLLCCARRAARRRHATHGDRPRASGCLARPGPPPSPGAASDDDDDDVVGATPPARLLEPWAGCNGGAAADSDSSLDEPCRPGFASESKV
# D(1A) dopamine receptor (Homo sapiens), sequence (P21728 whole entry): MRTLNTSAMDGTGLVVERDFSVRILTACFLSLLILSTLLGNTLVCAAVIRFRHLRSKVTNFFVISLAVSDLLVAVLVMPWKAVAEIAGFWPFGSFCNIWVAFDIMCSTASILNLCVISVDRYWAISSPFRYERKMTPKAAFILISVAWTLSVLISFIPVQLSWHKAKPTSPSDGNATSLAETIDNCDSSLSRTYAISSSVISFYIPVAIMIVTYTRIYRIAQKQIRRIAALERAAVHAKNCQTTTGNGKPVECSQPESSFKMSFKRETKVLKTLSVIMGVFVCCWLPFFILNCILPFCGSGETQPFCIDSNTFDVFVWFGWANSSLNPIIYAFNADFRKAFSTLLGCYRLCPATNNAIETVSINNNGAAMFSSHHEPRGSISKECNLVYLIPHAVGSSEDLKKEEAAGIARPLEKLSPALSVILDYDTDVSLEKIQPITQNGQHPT
# Beta-2 adrenergic receptor (Homo sapiens), sequence (P07550 whole entry, looked up): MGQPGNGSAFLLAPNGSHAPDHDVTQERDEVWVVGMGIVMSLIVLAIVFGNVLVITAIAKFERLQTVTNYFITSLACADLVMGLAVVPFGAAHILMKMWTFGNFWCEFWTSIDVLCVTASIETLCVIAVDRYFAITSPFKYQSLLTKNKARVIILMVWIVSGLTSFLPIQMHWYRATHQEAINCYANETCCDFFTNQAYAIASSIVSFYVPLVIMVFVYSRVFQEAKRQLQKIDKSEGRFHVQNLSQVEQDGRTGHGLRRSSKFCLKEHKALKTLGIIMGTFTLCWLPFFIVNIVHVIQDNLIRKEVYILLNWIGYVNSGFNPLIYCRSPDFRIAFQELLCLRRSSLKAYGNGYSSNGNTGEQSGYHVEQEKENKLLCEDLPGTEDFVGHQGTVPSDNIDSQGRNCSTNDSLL
# Mu-type opioid receptor (Homo sapiens), sequence (P35372 whole entry): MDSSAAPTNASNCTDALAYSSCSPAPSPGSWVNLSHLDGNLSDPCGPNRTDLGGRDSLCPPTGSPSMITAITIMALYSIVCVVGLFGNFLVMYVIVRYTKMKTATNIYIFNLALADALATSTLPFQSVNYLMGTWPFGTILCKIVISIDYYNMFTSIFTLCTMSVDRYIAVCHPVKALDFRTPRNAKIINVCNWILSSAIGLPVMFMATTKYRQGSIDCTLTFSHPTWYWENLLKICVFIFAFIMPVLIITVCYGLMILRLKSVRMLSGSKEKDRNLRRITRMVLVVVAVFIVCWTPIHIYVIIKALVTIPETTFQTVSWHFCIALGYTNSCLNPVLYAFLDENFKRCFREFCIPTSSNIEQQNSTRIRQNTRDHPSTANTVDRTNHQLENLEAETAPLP
# D(2) dopamine receptor (Homo sapiens), sequence (P14416 whole entry): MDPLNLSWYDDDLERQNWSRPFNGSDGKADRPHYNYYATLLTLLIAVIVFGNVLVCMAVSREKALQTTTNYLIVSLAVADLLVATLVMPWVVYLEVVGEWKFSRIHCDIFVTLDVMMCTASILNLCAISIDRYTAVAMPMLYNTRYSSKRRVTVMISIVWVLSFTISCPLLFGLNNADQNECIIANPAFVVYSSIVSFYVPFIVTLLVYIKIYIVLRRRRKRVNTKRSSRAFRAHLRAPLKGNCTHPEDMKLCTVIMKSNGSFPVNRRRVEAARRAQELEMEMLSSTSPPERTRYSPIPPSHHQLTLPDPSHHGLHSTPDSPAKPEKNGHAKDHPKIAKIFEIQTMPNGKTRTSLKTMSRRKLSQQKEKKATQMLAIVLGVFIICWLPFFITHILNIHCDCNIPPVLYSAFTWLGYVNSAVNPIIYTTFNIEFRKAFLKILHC
compound,measurement,setting,value
OC(c1ccc(F)cc1)c1ccc2c(cnn2-c2ccc(F)cc2)c1 (stereo not given),IC50,[1],10000 nM
"OC(c1ccc(F)cc1)(c1ccc2c(cnn2-c2ccc(F)cc2)c1)C(F)(F)F (stereo in doubt; 12) [2,2,2-TRIFLUORO-1-(4-FLUOROPHENYL)-1-(1-(4-FLUOROPHENYL)-1H-INDAZOL-5-YL)ETHANOL (DIASTEREOMERIC MIX)]",IC50,[1],161 nM
"OC(c1ccc2c(cnn2-c2ccc(F)cc2)c1)(c1cccc(Cl)c1Cl)C(F)(F)F (stereo in doubt; 23) [1-(2,3-DICHLOROPHENYL)-2,2,2-TRIFLUORO-1-(1-(4-FLUOROPHENYL)-1H-INDAZOL-5-YL)ETHANOL (ENANTIOMERIC MIX)]",IC50,[1],87 nM
Cc1cccc(C(O)(c2ccc3c(cnn3-c3ccc(F)cc3)c2)C(F)(F)F)c1 (stereo not given),IC50,[1],52 nM
OC(c1ccc(Cl)c(Cl)c1)(c1ccc2c(cnn2-c2ccc(F)cc2)c1)C(F)(F)F (stereo not given),IC50,[1],178 nM
"OC(c1ccc(F)cc1)(c1ccc2c(cnn2-c2ccc(F)cc2)c1)C(F)(F)F (single isomer, unassigned; (+)) [2,2,2-TRIFLUORO-1-(4-FLUOROPHENYL)-1-(1-(4-FLUOROPHENYL)-1H-INDAZOL-5-YL)ETHANOL (DIASTEREOMERIC MIX)]",IC50,[1],3000 nM
OC(c1cccc(Cl)c1)(c1ccc2c(cnn2-c2ccc(F)cc2)c1)C(F)(F)F (stereo not given),IC50,[1],72 nM
"OC(c1ccc(F)c(Cl)c1)(c1ccc2c(cnn2-c2ccc(F)cc2)c1)C(F)(F)F (stereo in doubt; 18) [1-(3-CHLORO-4-FLUOROPHENYL)-2,2,2-TRIFLUORO-1-(1-(4-FLUOROPHENYL)-1H-INDAZOL-5-YL)ETHANOL (ENANTIOMERIC MIX)]",IC50,[1],117 nM
"OC(c1ccc(F)cc1)(c1ccc2c(cnn2-c2ccc(F)cc2)c1)C(F)(F)F (single isomer, unassigned; (-)) [2,2,2-TRIFLUORO-1-(4-FLUOROPHENYL)-1-(1-(4-FLUOROPHENYL)-1H-INDAZOL-5-YL)ETHANOL (DIASTEREOMERIC MIX)]",IC50,[1],86 nM
N#Cc1cc(C(O)(c2ccc3c(cnn3-c3ccc(F)cc3)c2)C(F)(F)F)ccc1F (stereo not given),IC50,[1],30 nM
Cc1ccc(C(O)(c2ccc3c(cnn3-c3ccc(F)cc3)c2)C(F)(F)F)cc1 (stereo not given),IC50,[1],2090 nM
N#Cc1cccc(C(O)(c2ccc3c(cnn3-c3ccc(F)cc3)c2)C(F)(F)F)c1 (stereo not given),IC50,[1],99 nM
"OC(c1ccc(F)c(Cl)c1)(c1ccc2c(cnn2-c2ccc(F)cc2)c1)C(F)(F)F (single isomer, unassigned; (-))",inhibition,[2],< 50%
same,inhibition,[3],< 50%
same,inhibition,[4],< 50%
same,inhibition,[5],< 50%
same,inhibition,[6],< 50%
same,inhibition,[7],< 50%
same,inhibition,[8],< 50%
same,inhibition,[9],< 50%
same,inhibition,[10],< 50%
same,inhibition,[11],< 50%
same,inhibition,[12],< 50%
same,inhibition,[13],< 50%
same,inhibition,[14],< 50%
same,inhibition,[15],< 50%
same,inhibition,[16],< 50%
same,inhibition,[17],< 50%
same,inhibition,[18],< 50%
same,inhibition,[19],< 50%
same,inhibition,[20],< 50%
same,inhibition,[21],< 50%
same,inhibition,[22],< 50%
same,inhibition,[23],< 50%
same,inhibition,[24],< 50%
same,inhibition,[25],< 50%
same,inhibition,[26],< 50%
same,inhibition,[27],< 50%
same,inhibition,[28],< 50%
same,inhibition,[29],< 50%
same,inhibition,[30],< 50%
CC(O)(c1ccc(F)cc1)c1ccc2c(cnn2-c2ccc(F)cc2)c1 (stereo not given),IC50,[1],2110 nM
OC(c1ccc2c(cnn2-c2ccc(F)cc2)c1)(c1ccccc1Cl)C(F)(F)F (stereo not given),IC50,[1],35 nM
OC(c1ccc2c(cnn2-c2ccc(F)cc2)c1)(c1ccccc1F)C(F)(F)F (stereo not given),IC50,[1],54 nM
Cc1ccccc1C(O)(c1ccc2c(cnn2-c2ccc(F)cc2)c1)C(F)(F)F (stereo not given),IC50,[1],282 nM
